Measured values as given in US4231925A, “Pentapeptides with analgesic activity on peripheral administration” (American Home Products Corporation, priority 1979, dated 1980).
Values joined by “and” are separate entries in the source; they are usually repeats but may differ in a detail not shown here. Equal values may be shown once. Read-outs that look alike come from different tables or passages of the source.

Columns and labels:
[1] = system: phenylbenzoquinone (PBQ)-induced writhing; experiment: phenylbenzoquinone-induced writhing test, subcutaneous administration; assay type: in vivo, mice
Method: The procedure is a modification of the method described by Siegmund and Cadmus, Proc. Soc. Exp. Biol. Med., 95, 729-731 (1957), which is used to evaluate both narcotic and non-narcotic analgesics. […] Laboratory mice of either sex, weighing 18-27 g. are used in groups of ten as test subjects. The test compound is administered first in an initial dose determined by the potency of the class of compounds and the route of administration. The test is run first in one group of mice at a relatively high dose to establish significant analgesic activity [see (1) in Table I]. When analgesic activity is observed in four or more of this group, a second test is run on at least three groups of mice to determine the most appropriate dose/time response to use in the subsequent dose response test [see (2) in Table I]. Finally, the ED50 dose is determined by administering different doses to several groups of mice and observing their reaction during the time interval established by the dose/time test [see (3)-(9) in Table I]. Note that the time interval is designated by the median time of the chosen response observation period (e.g. 15, 30, or 45 minutes). In testing each group of mice according to the above protocol, all mice in the group first are administered the selected dose of the test compound solution. Five minutes prior to the observation period (viz. at 5, 20, or 35 minutes after subcutaneous administration of the test compound of at 20, 50, or 80 minutes after oral administration of the test compound) all mice in the group receive 0.25 ml., intraperitoneally, of the writhing agonist (i.e. 0.02% solution of PBQ). At the chosen time interval, the group of mice is observed for a period of ten minutes for writhing.

[2] = system: rat brain opiate receptors; experiment: in vitro opiate receptor assay, 3H-naloxone displacement in rat brain homogenate; assay type: binding; details: relative to morphine = 1.0
Method: In this procedure, a fasted male Charles River CD rat, 190-290 g., is killed with a guillotine after carbon-dioxideanesthesia, and the brain is rapidly removed. After the cerebellum is excised, the brain is homogenized in 100 vol. (usually 150 ml.) iced 0.05 M Trizma buffer (pH 7.4 at 25°) 0.1 M in sodium chloride in a Brinkman Polytron for 1 min. at setting 3. The homogenate is centrifuged at 49,500 g for 15 min. (Sorvall SS-34 rotor at 19,500 rpm) in 50 ml. propylene tubes. The supernatant is decanted, and the pellets are resuspended in iced buffer to the original volume by use of a motor driven pestle tissue grinder. The homogenate is centrifuged again and resuspended in 10 ml. iced buffer.
Homogenates and samples ae equilibrated at room temperature for 5 minutes before adding 0.05 ml. 3 H-naloxone solution to give a total volume of 0.50 ml. for all tubes.
The assay tubes are hand-shaken every 15 min. for an incubation time of 60 min. at 0° C. The contents are filtered under reduced pressure through Whatman glass-fiber circles (GF/B, 2.4 cm. dia.). […] The vials are hand-shaken immediately, after 30 min., at the end of the day, stored overnight, hand-shaken, and radioactivity is determined by liquid-sintillation spectrometry.
The assay is calculated as follows: […]

[3] = oral administration; cited from earlier work
[4] = system: tail-flick; details: rat, cited from earlier work
[5] = e.g. subcutaneously or intravenously; cited from earlier work
[6] = rat blood plasma; cited from earlier work
[7] = human blood plasma; cited from earlier work
[8] = intracerebroventricularly, intravenously, or subcutaneously; cited from earlier work
[9] = system: opiate receptor; details: electrically stimulated guinea pig ileum; cited from earlier work
[10] = rat lateral brain ventricle; cited from earlier work

In the case of `CN[C@@H](Cc1ccc(O)cc1)C(=O)N[C@H](CCSC)C(=O)NCC(=O)N(C)[C@@H](Cc1ccccc1)C(=O)N[C@H](CO)C(N)=O` [Example 1, N-Methyl-Tyrosyl-D-Methionyl-Glycyl-N-Methyl-Phenylalanyl-D-Serinamide . Acetate], the “No. Analgesic / Total No. Tested” value ([1]; (1) 10.0 mg/kg subcutaneous, 15 minutes, 10 mg/kg) is reported as 10/10 and 10 of 10, the “No. Analgesic / Total No. Tested” value ([1]; (2) dose/time test, 0.1 mg/kg subcutaneous, 15 minutes) is reported as 4/10 and the “No. Analgesic / Total No. Tested” value ([1]; (2) dose/time test, 0.1 mg/kg subcutaneous, 30 minutes) is reported as 3/10. The “No. Analgesic / Total No. Tested” value ([1]; (2) dose/time test, 0.1 mg/kg subcutaneous, 45 minutes) was 1/10, the “No. Analgesic / Total No. Tested” value ([1]; (3) 0.032 mg/kg subcutaneous, 15 minutes) was 0/10 and the “No. Analgesic / Total No. Tested” value ([1]; (4) 0.056 mg/kg subcutaneous, 15 minutes) was 3/10. For the same molecule, the “No. Analgesic / Total No. Tested” value ([1]; (5) dose response test, 0.1 mg/kg subcutaneous, 15 minutes) was 2/10, the “No. Analgesic / Total No. Tested” value ([1]; (6) 0.178 mg/kg subcutaneous, 15 minutes) was 6/10 and the “No. Analgesic / Total No. Tested” value ([1]; (7) 0.316 mg/kg subcutaneous, 15 minutes) was 5/10. For the same molecule, the “No. Analgesic / Total No. Tested” value ([1]; (8) 0.56 mg/kg subcutaneous, 15 minutes) was 4/10, the “No. Analgesic / Total No. Tested” value ([1]; (9) 1.00 mg/kg subcutaneous, 15 minutes, 1 mg/kg) was 8/10 and 8 of 10 and the ED50 ([1]; subcutaneous, mice, complete inhibition of PBQ-induced writhing, 15 minutes) was 0.33 mg/kg. The “Relative Displacement Potency” value [2] was 14 and the “Relative Displacement Potency” value ([2]; listed as Example I) was “in excess of ten times”.
For “(D-Ala^2, Me-Phe^4, Met(0)^5)-enkephalin”, the analgesic activity [3] is listed as “elicited analgesic activity”.
For (D-Ala^2, Met(O)^5)-enkephalin, the analgesic activity [3] is listed as “elicited analgesic activity”.
For “H--Tyr--Gly--Gly--Phe--Leu--OH [Leu-enkephalin]”, the “dose producing analgesia equivalent to morphine” value ([4]; intraventricular) is given as 10-20 times that of morphine, the duration of analgesia ([4]; intraventricular) is given as 10 to 12 min and the “activity when administered systemically” value [5] is given as “virtually inactive”.
In the case of “H--Tyr--Gly--Gly--Phe--Met--OH [Met-enkephalin]”, the “dose producing analgesia equivalent to morphine” value ([4]; intraventricular) is given as 10-20 times that of morphine, the duration of analgesia ([4]; intraventricular) is given as 10 to 12 min and the “activity when administered systemically” value [5] is given as “virtually inactive”. For the same molecule, the “breakdown in blood plasma” value [6] was “broken down” and the “breakdown in blood plasma” value [7] was “broken down”.
For (D-Met^2, Pro^5)-enkephalin amide, the analgesic activity [8] is given as “elicits analgesic activity”.
For `CN1CC[C@]23c4c5ccc(O)c4O[C@H]2[C@@H](O)C=C[C@H]3[C@H]1C5` [Morphine], the duration of analgesia ([4]; morphine comparison) is given as “an hour or more”.
In the case of “(D-Met^2, Leu^5) enkephalin, methyl ester”, the “opiate receptor agonist activity” value [9] is listed as “strong opiate receptor agonist activity”.
For (Ser^5)-enkephalin, the analgesic activity [10] is given as “eliciting analgesic activity”.
